± gives the expanded uncertainty stated by the source.
Details: 100 kPa, Liquid; for electrical conductivity: Alternating current cell with electrodes
[1] = 288.15 K, Buoyancy - hydrostatic balance
[2] = 293.15 K, Buoyancy - hydrostatic balance
[3] = 298.15 K, Buoyancy - hydrostatic balance
[4] = 298.15 K, Capillary tube (Ostwald / Ubbelohde) method
[5] = 303.15 K, Buoyancy - hydrostatic balance
[6] = 303.15 K, Capillary tube (Ostwald / Ubbelohde) method
[7] = 308.15 K, Buoyancy - hydrostatic balance
[8] = 308.15 K, Capillary tube (Ostwald / Ubbelohde) method
[9] = 313.15 K, Buoyancy - hydrostatic balance
[10] = 313.15 K, Capillary tube (Ostwald / Ubbelohde) method
[11] = 318.15 K, Buoyancy - hydrostatic balance
[12] = 318.15 K, Capillary tube (Ostwald / Ubbelohde) method
[13] = 323.15 K, Buoyancy - hydrostatic balance
[14] = 323.15 K, Capillary tube (Ostwald / Ubbelohde) method
[15] = 328.15 K, Buoyancy - hydrostatic balance
[16] = 328.15 K, Capillary tube (Ostwald / Ubbelohde) method
[17] = 333.15 K, Buoyancy - hydrostatic balance
[18] = 333.15 K, Capillary tube (Ostwald / Ubbelohde) method
[19] = 338.15 K, Buoyancy - hydrostatic balance
[20] = 338.15 K, Capillary tube (Ostwald / Ubbelohde) method
[21] = 343.15 K, Capillary tube (Ostwald / Ubbelohde) method
[22] = 348.15 K, Capillary tube (Ostwald / Ubbelohde) method
[23] = 353.15 K, Capillary tube (Ostwald / Ubbelohde) method

## CCCCCC[n+]1cccc(C)c1.O=S(=O)([N-]S(=O)(=O)C(F)(F)F)C(F)(F)F
278.15 K
  electrical conductivity: 0.0495 ± 0.001 S/m
283.15 K
  electrical conductivity: 0.067 ± 0.0013 S/m
283.15 K, Buoyancy - hydrostatic balance
  mass density: 1373.6 ± 2 kg/m3
288.15 K
  electrical conductivity: 0.0885 ± 0.0018 S/m
[1]
  mass density: 1369.7 ± 2 kg/m3
293.15 K
  electrical conductivity: 0.116 ± 0.0023 S/m
[2]
  mass density: 1365.3 ± 2 kg/m3
298.15 K
  electrical conductivity: 0.148 ± 0.003 S/m
[3]
  mass density: 1361.5 ± 2 kg/m3
[4]
  viscosity: 86.59 ± 2.1 mPa·s
303.15 K
  electrical conductivity: 0.187 ± 0.0037 S/m
[5]
  mass density: 1357 ± 2 kg/m3
[6]
  viscosity: 67.83 ± 1.6 mPa·s
308.15 K
  electrical conductivity: 0.231 ± 0.005 S/m
[7]
  mass density: 1352.9 ± 2 kg/m3
[8]
  viscosity: 54.23 ± 1.2 mPa·s
313.15 K
  electrical conductivity: 0.283 ± 0.006 S/m
[9]
  mass density: 1348.7 ± 2 kg/m3
[10]
  viscosity: 44.24 ± 0.99 mPa·s
318.15 K
  electrical conductivity: 0.342 ± 0.007 S/m
[11]
  mass density: 1344.7 ± 2 kg/m3
[12]
  viscosity: 36.21 ± 0.81 mPa·s
323.15 K
  electrical conductivity: 0.406 ± 0.008 S/m
[13]
  mass density: 1340.3 ± 2 kg/m3
[14]
  viscosity: 29.97 ± 0.67 mPa·s
328.15 K
  electrical conductivity: 0.477 ± 0.01 S/m
[15]
  mass density: 1336 ± 2 kg/m3
[16]
  viscosity: 25.08 ± 0.55 mPa·s
333.15 K
  electrical conductivity: 0.553 ± 0.011 S/m
[17]
  mass density: 1331.7 ± 2 kg/m3
[18]
  viscosity: 21.31 ± 0.47 mPa·s
338.15 K
  electrical conductivity: 0.638 ± 0.013 S/m
[19]
  mass density: 1328 ± 2 kg/m3
[20]
  viscosity: 18.28 ± 0.4 mPa·s
343.15 K
  electrical conductivity: 0.728 ± 0.015 S/m
[21]
  viscosity: 15.88 ± 0.35 mPa·s
348.15 K
  electrical conductivity: 0.822 ± 0.016 S/m
[22]
  viscosity: 13.71 ± 0.3 mPa·s
353.15 K
  electrical conductivity: 0.92 ± 0.018 S/m
[23]
  viscosity: 11.99 ± 0.26 mPa·s

## CCC[n+]1cccc(C)c1.O=S(=O)([N-]S(=O)(=O)C(F)(F)F)C(F)(F)F
278.15 K
  electrical conductivity: 0.152 ± 0.003 S/m
283.15 K
  electrical conductivity: 0.199 ± 0.004 S/m
288.15 K
  electrical conductivity: 0.253 ± 0.005 S/m
[1]
  mass density: 1459.6 ± 2 kg/m3
293.15 K
  electrical conductivity: 0.318 ± 0.006 S/m
[2]
  mass density: 1455.6 ± 2 kg/m3
298.15 K
  electrical conductivity: 0.393 ± 0.008 S/m
[3]
  mass density: 1451.4 ± 2 kg/m3
[4]
  viscosity: 54.12 ± 1.2 mPa·s
303.15 K
  electrical conductivity: 0.476 ± 0.01 S/m
[5]
  mass density: 1447.1 ± 2 kg/m3
[6]
  viscosity: 43.46 ± 0.99 mPa·s
308.15 K
  electrical conductivity: 0.571 ± 0.011 S/m
[7]
  mass density: 1442.6 ± 2 kg/m3
[8]
  viscosity: 35.27 ± 0.79 mPa·s
313.15 K
  electrical conductivity: 0.671 ± 0.013 S/m
[9]
  mass density: 1438 ± 2 kg/m3
[10]
  viscosity: 29.18 ± 0.65 mPa·s
318.15 K
  electrical conductivity: 0.786 ± 0.016 S/m
[11]
  mass density: 1433.2 ± 2 kg/m3
[12]
  viscosity: 24.32 ± 0.54 mPa·s
323.15 K
  electrical conductivity: 0.904 ± 0.018 S/m
[13]
  mass density: 1428.7 ± 2 kg/m3
[14]
  viscosity: 20.87 ± 0.46 mPa·s
328.15 K
  electrical conductivity: 1.04 ± 0.021 S/m
[15]
  mass density: 1424.5 ± 2 kg/m3
[16]
  viscosity: 17.94 ± 0.39 mPa·s
333.15 K
  electrical conductivity: 1.18 ± 0.024 S/m
[17]
  mass density: 1420.3 ± 2 kg/m3
[18]
  viscosity: 15.15 ± 0.33 mPa·s
338.15 K
  electrical conductivity: 1.33 ± 0.027 S/m
[19]
  mass density: 1416 ± 2 kg/m3
[20]
  viscosity: 13.4 ± 0.29 mPa·s
343.15 K
  electrical conductivity: 1.49 ± 0.03 S/m
[21]
  viscosity: 11.74 ± 0.25 mPa·s
348.15 K
  electrical conductivity: 1.65 ± 0.033 S/m
[22]
  viscosity: 10.37 ± 0.22 mPa·s
353.15 K
  electrical conductivity: 1.83 ± 0.037 S/m
[23]
  viscosity: 9.19 ± 0.2 mPa·s

## CCCCCC[n+]1ccc(C)cc1.O=S(=O)([N-]S(=O)(=O)C(F)(F)F)C(F)(F)F
283.15 K
  electrical conductivity: 0.0839 ± 0.0017 S/m
283.15 K, Concentric cylinders viscometry
  viscosity: 181.62 ± 5.1 mPa·s
283.15 K, Vibrating tube method
  mass density: 1365.3 ± 2.1 kg/m3
288.15 K
  electrical conductivity: 0.11 ± 0.0022 S/m
288.15 K, Concentric cylinders viscometry
  viscosity: 133.92 ± 3.6 mPa·s
288.15 K, Vibrating tube method
  mass density: 1360.8 ± 2.1 kg/m3
293.15 K
  electrical conductivity: 0.145 ± 0.0029 S/m
293.15 K, Concentric cylinders viscometry
  viscosity: 101.07 ± 2.5 mPa·s
293.15 K, Vibrating tube method
  mass density: 1356.3 ± 2.1 kg/m3
298.15 K
  electrical conductivity: 0.185 ± 0.0037 S/m
298.15 K, Concentric cylinders viscometry
  viscosity: 77.99 ± 1.8 mPa·s
298.15 K, Vibrating tube method
  mass density: 1351.8 ± 2.1 kg/m3
303.15 K
  electrical conductivity: 0.231 ± 0.005 S/m
303.15 K, Concentric cylinders viscometry
  viscosity: 61.3 ± 1.4 mPa·s
303.15 K, Vibrating tube method
  mass density: 1347.4 ± 2.1 kg/m3
308.15 K
  electrical conductivity: 0.283 ± 0.006 S/m
308.15 K, Concentric cylinders viscometry
  viscosity: 49.03 ± 1.1 mPa·s
308.15 K, Vibrating tube method
  mass density: 1342.9 ± 2.1 kg/m3
313.15 K
  electrical conductivity: 0.346 ± 0.007 S/m
313.15 K, Concentric cylinders viscometry
  viscosity: 39.75 ± 0.89 mPa·s
313.15 K, Vibrating tube method
  mass density: 1338.5 ± 2.1 kg/m3
318.15 K
  electrical conductivity: 0.415 ± 0.008 S/m
318.15 K, Concentric cylinders viscometry
  viscosity: 32.73 ± 0.72 mPa·s
318.15 K, Vibrating tube method
  mass density: 1334.1 ± 2.1 kg/m3
323.15 K
  electrical conductivity: 0.487 ± 0.01 S/m
323.15 K, Concentric cylinders viscometry
  viscosity: 27.38 ± 0.6 mPa·s
323.15 K, Vibrating tube method
  mass density: 1329.6 ± 2.1 kg/m3
328.15 K
  electrical conductivity: 0.571 ± 0.011 S/m
328.15 K, Concentric cylinders viscometry
  viscosity: 23.11 ± 0.51 mPa·s
328.15 K, Vibrating tube method
  mass density: 1325.2 ± 2.1 kg/m3
333.15 K
  electrical conductivity: 0.652 ± 0.013 S/m
333.15 K, Concentric cylinders viscometry
  viscosity: 19.71 ± 0.43 mPa·s
333.15 K, Vibrating tube method
  mass density: 1320.8 ± 2.1 kg/m3
338.15 K
  electrical conductivity: 0.756 ± 0.015 S/m
338.15 K, Concentric cylinders viscometry
  viscosity: 16.97 ± 0.37 mPa·s
338.15 K, Vibrating tube method
  mass density: 1316.5 ± 2.1 kg/m3
343.15 K
  electrical conductivity: 0.861 ± 0.017 S/m
343.15 K, Concentric cylinders viscometry
  viscosity: 14.73 ± 0.32 mPa·s
343.15 K, Vibrating tube method
  mass density: 1312.1 ± 2.1 kg/m3
348.15 K
  electrical conductivity: 0.968 ± 0.019 S/m
348.15 K, Concentric cylinders viscometry
  viscosity: 12.87 ± 0.28 mPa·s
348.15 K, Vibrating tube method
  mass density: 1307.8 ± 2.1 kg/m3
353.15 K
  electrical conductivity: 1.07 ± 0.022 S/m
353.15 K, Concentric cylinders viscometry
  viscosity: 11.32 ± 0.24 mPa·s
353.15 K, Vibrating tube method
  mass density: 1303.4 ± 2 kg/m3
